Laboratory results published in ChEMBL document CHEMBL5338784, “Non-steroidal CYP17A1 Inhibitors: Discovery and Assessment” (J Med Chem, 2023).
Each block holds one molecule with its values, some of them ahead of it.

Columns and labels:
[1] = target: T1, Steroid 17-alpha-hydroxylase/17,20 lyase (Homo sapiens, UniProt P05093); assay: Inhibition of human testicular microsome CYP17; type: ADME, microsomes, Testis
T1 sequence (P05093 whole entry): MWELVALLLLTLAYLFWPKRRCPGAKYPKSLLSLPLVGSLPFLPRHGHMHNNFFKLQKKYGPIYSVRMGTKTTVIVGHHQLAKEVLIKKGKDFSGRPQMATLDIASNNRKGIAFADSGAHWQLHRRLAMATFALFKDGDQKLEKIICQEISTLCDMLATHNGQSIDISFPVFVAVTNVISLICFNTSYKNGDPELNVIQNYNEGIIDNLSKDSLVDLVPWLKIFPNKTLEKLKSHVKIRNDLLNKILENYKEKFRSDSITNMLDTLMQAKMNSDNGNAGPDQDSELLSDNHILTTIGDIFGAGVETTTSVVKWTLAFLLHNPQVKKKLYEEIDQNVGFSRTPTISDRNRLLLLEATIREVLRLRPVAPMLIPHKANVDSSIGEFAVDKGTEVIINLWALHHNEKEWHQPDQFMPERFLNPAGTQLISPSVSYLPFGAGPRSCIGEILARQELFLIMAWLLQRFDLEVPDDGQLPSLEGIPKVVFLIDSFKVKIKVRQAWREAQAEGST

[2] = target: T2, Steroid 17-alpha-hydroxylase/17,20 lyase (Rattus norvegicus, UniProt P11715); assay: Inhibition of rat testicular CYP17; type: ADME, tissue-based, Testis
T2 sequence (P11715 whole entry): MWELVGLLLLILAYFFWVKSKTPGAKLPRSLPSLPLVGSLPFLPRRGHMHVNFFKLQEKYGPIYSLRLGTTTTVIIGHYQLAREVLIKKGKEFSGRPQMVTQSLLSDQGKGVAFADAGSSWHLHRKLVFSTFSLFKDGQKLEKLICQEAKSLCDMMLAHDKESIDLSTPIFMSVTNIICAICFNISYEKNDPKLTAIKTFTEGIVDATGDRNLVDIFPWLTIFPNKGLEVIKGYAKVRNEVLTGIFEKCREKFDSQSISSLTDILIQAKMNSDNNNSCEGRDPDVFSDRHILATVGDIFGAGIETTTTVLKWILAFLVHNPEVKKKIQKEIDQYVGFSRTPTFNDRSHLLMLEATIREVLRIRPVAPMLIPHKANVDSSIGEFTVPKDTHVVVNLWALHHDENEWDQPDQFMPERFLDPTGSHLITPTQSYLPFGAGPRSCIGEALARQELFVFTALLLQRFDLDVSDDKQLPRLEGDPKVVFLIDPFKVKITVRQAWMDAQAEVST

[3] = target: T1, Steroid 17-alpha-hydroxylase/17,20 lyase; assay: Inhibition of human testicular CYP17; type: ADME, tissue-based, Testis
[4] = target: T1, Steroid 17-alpha-hydroxylase/17,20 lyase; assay: Inhibiton of human CYP17A1 C17, 20 lyase activity expressed in Escherichia coli using [1,2-3H]-17alpha-hydroxyprogesterone as substrate incubated for 15 mins in presence of NADPH generating system; type: ADME
Serum = assay: In vivo inhibition of testosterone in Sprague-Dawley rat assessed as serum testosterone level at 25 mg/kg, po measured after 5 hrs by radioimmuno assay relative to control; type: functional
Cytochrome P450 3A4 = Cytochrome P450 3A4 (Homo sapiens, UniProt P08684); assay: Inhibition of human recombinant CYP3A4; type: ADME
Chain of Cytochrome P450 3A4 (P08684 whole entry): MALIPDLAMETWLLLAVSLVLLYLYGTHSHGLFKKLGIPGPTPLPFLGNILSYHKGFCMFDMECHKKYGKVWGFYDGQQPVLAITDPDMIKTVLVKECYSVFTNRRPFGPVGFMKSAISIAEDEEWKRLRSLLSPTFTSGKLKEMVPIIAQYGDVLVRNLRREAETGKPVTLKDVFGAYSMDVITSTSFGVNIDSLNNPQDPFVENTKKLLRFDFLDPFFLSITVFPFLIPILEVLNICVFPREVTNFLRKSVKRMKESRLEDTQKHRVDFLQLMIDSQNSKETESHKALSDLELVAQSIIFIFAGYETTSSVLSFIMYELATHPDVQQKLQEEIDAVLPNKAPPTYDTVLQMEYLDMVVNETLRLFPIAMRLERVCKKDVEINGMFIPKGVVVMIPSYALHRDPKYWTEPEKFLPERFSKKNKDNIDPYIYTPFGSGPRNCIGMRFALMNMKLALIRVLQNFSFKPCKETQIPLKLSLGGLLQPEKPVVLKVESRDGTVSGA

Cytochrome P450 2D6 = Cytochrome P450 2D6 (Homo sapiens, UniProt P10635); assay: Inhibition of human recombinant CYP2D6; type: ADME
Chain of Cytochrome P450 2D6 (P10635 whole entry): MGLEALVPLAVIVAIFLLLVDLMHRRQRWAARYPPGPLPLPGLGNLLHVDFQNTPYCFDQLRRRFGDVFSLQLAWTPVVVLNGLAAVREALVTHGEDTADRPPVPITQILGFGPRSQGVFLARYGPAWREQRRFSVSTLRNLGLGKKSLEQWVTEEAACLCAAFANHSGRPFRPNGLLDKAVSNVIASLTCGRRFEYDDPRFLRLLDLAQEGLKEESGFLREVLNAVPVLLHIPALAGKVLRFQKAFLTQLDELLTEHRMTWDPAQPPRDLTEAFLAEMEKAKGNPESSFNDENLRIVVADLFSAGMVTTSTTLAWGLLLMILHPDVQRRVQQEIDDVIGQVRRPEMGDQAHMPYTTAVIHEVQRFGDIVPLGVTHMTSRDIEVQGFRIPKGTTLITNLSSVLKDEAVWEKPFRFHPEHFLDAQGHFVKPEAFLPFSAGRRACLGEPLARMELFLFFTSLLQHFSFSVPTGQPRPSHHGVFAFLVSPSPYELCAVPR

[5] = target: T2, Steroid 17-alpha-hydroxylase/17,20 lyase; assay: Binding affinity to Sprague-Dawley rat testicular microsome CYP17A1 assessed as inhibition constant; type: ADME, microsomes, Testis
[6] = target: T2, Steroid 17-alpha-hydroxylase/17,20 lyase; assay: Inhibition of Spague-Dawley rat testicular microsome CYP17 using progesterone as substrate preincubated for 5 mins followed by enzyme addition measured after 20 mins in presence of NADPH; type: ADME, microsomes, Testis
[7] = target: T1, Steroid 17-alpha-hydroxylase/17,20 lyase; assay: Inhibition of human testicular microsomal C17, 20 lyase activity using 17alpha-[1,2,6,7-3H] hydroxyprogesterone; type: microsomes, Testis, Microsome
[8] = target: T2, Steroid 17-alpha-hydroxylase/17,20 lyase; assay: Inhibiton of Sprague-Dawley rat testicular microsomal suspension CYP17A1 C17, 20 lyase activity using [1,2-3H]-17alpha-hydroxyprogesterone as substrate incubated for 15 mins in presence of NADPH generating system; type: ADME, microsomes, Testis, Microsome
[9] = target: T2, Steroid 17-alpha-hydroxylase/17,20 lyase; assay: Inhibition of rat CYP17; type: ADME
[10] = target: T1, Steroid 17-alpha-hydroxylase/17,20 lyase; assay: Inhibition of human recombinant CYP17A1 C17,20-lyase activity expressed in Escherichia coli using [1,2-3H]-17alpha-hydroxypregnenolone as substrate incubated for 15 mins; type: ADME
[11] = target: T2, Steroid 17-alpha-hydroxylase/17,20 lyase; assay: Inhibiton of Sprague-Dawley rat testicular microsomal suspension CYP17A1 C17, 20 lyase activity using radiolabelled 17alpha-hydroxyprogesterone as substrate preincubated for 5 mins followed by enzyme addition incubated for 30 mins in presence of NADPH generating system; type: ADME, microsomes, Testis, Microsome
[12] = target: T2, Steroid 17-alpha-hydroxylase/17,20 lyase; assay: Inhibiton of Sprague-Dawley rat testicular microsomal suspension CYP17A1 17-alpha hydroxylase activity using radiolabelled progesterone as substrate preincubated for 5 mins followed by enzyme addition incubated for 15 mins in presence of NADPH generating system; type: ADME, microsomes, Testis, Microsome
[13] = target: T1, Steroid 17-alpha-hydroxylase/17,20 lyase; assay: Inhibition of human testis C17, 20 lyase activity using 17alpha-[1,2-3H] hydroxyprogesterone incubated for 30 mins in presence of NADPH generating system; type: tissue-based
[14] = target: T1, Steroid 17-alpha-hydroxylase/17,20 lyase; assay: Inhibition of human CYP17 C17,20-lyase activity; type: ADME

IC50 [1]: 1 µM
Compound: c1ccc(-c2ccc(Cn3ccnc3)cc2)cc1

IC50 [2]: 0.54 µM
IC50 [3]: 0.24 µM
Compound: CC(c1ccc(-c2ccc(F)cc2)cc1)n1ccnc1 (stereo not given)

IC50 [4]: 0.021 µM
Compound: Cc1c(/C=C/[C@H](C)c2c[nH]cn2)sc2ccc(F)cc12
Ct (Serum): 2%

IC50 (Cytochrome P450 3A4): > 10 µM
IC50 (Cytochrome P450 2D6): > 10 µM
Compound: c1cncc(Nc2ccc(-n3cnc4ccccc43)cc2)c1

Ki [5]: 0.04 µM
Compound: CC1=C(c2cccnc2)Cc2cc(Cl)ccc21

IC50 [6]: 13 µM
Compound: COc1cccc2c1CCC(c1ccncc1)C2=O (stereo not given)

IC50 [7]: 0.185 µM
Compound: Brc1cc(Br)c2oc(Cn3ccnc3)cc2c1

IC50 [8]: 0.23 µM
Compound: C(=C\c1cccc(-n2ccnc2)c1)/c1ccccc1

Compound: COc1ccc2c(c1)CCC(Cc1c[nH]cn1)C2 (stereo not given)
IC50 [9]: 1 µM

IC50 [10]: 0.011 µM
Compound: COc1ccc(-c2ccc([C@](O)(c3c[nH]cn3)C(C)C)cc2)cc1OC

Ki [5]: 0.3 µM
Compound: O=C1c2cc(Cl)ccc2CCC1c1cccnc1 (stereo not given)

IC50 [11]: 0.058 µM
IC50 [12]: 0.5 µM
Compound: Brc1ccc(CCCCCn2ccnc2)cc1

IC50 [13]: 0.004 µM
Compound: Clc1ccccc1C(c1cc2cc(Br)ccc2o1)n1ccnc1 (stereo not given)

IC50 [8]: 0.024 µM
Compound: C(=C/c1cccc(Cn2ccnc2)c1)/c1ccccc1
Ct (Serum): 135%

IC50 [14]: 25 µM
Compound: O=c1c(O)cc([C@H]2Oc3cc(O)cc(O)c3C[C@H]2O)cc2c([C@H]3Oc4cc(O)cc(O)c4C[C@H]3O)cc(O)c(O)c12 [THEAFLAVIN]
